According to patent US20250215030A1, “STAT MODULATORS AND USES THEREOF” (Recludix Pharma, Inc., priority 2022, published 2025):

Columns and labels:
[1] = target: T1, Recombinant STAT6 protein (STAT6(W123-T658)) (Homo sapiens, UniProt P42226); experiment: STAT6 Fluorescence Polarization (FP) Assay; type: binding; settings: STAT6(W123-T658) 250 nM, probe 5-FAM-ApYKPFQDLI-NH2 2 nM, 45-minute incubation
T1 construct: STAT6(W123-T658)
T1 sequence (P42226 123-658): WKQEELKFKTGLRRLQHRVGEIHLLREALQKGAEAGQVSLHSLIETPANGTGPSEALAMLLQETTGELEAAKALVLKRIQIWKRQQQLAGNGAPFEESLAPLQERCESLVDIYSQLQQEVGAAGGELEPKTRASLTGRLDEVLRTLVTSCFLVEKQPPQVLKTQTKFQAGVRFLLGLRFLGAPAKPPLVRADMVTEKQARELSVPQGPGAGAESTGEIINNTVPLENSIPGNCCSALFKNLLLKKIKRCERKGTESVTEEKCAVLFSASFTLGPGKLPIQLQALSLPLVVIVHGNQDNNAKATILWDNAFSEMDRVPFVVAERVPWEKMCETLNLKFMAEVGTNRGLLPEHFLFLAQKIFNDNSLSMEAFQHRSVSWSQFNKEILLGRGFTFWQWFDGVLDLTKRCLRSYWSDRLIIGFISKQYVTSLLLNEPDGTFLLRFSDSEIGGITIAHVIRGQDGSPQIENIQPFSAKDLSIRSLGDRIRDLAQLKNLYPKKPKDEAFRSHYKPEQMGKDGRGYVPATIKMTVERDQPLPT
Outline: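 STAT6 (W123-T658) at 250 nM mixed with 2 nM 5-FAM-ApYKPFQDLI-NH2 probe in HEPES pH 7.4 buffer with DTT and Tween 20, 1% DMSO final. Polarization read after 45 min at room temperature; IC50 by nonlinear regression of mP versus log concentration, reported in bins A–D.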

[2] = target: T2, Recombinant STAT3 protein (STAT3(G127-I722)) (Homo sapiens, UniProt P40763); experiment: STAT3 Fluorescence Polarization (FP) Assay; type: binding; settings: STAT3(G127-I722) 25 nM, probe 5-FAM-GpYLPQTV-NH2 2 nM, 45-minute incubation
T2 construct: STAT3(G127-I722)
T2 sequence (P40763 127-722, species assumed): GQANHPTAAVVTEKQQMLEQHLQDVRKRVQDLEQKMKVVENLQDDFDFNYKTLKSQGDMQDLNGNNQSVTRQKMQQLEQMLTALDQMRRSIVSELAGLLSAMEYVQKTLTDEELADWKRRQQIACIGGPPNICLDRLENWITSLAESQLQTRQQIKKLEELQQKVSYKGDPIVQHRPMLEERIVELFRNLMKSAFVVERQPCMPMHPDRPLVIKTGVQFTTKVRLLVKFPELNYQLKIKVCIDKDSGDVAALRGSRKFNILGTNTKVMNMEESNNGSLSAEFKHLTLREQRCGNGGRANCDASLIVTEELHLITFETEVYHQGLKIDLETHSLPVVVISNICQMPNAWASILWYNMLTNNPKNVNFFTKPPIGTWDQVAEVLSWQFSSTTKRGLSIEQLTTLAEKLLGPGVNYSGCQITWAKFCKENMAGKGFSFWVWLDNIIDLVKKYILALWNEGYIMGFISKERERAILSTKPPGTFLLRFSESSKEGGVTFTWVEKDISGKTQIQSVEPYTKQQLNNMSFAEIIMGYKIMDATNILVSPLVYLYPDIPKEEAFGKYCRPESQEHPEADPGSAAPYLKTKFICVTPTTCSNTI
Outline: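 STAT3(G127-I722) at 25 nM and 5-FAM-GpYLPQTV-NH2 probe at 2 nM in HEPES pH 7.4 buffer with NaCl, EDTA, Tween 20, DTT; 1% DMSO. FP read after 45 min at room temperature; IC50 by nonlinear regression of mP vs log concentration, binned A ≤100 nM to D >10 μM.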

Row | IC50 [1] | IC50 [2] | Compound
1 | 0.3 to 3 µM | 0.1 to 1 µM | O=C(N[C@H]1C[C@@H]2C[C@@H]2C[C@H]2CC[C@@H](C(=O)N[C@@H]3CCN(c4cn[nH]c4)C3)N2C1=O)c1cc2cc(C(F)(F)P(=O)(O)O)ccc2s1 [Compound 120, ((2-(((3S,6S,7aS,8aR,9aR)-3-(((R)-1-(1H-pyrazol-4-yl)pyrrolidin-3-yl)carbamoyl)-5-oxodecahydro-1H-cyclopropa[d]pyrrolo[1,2-a]azocin-6-yl)carbamoyl)benzo[b]thiophen-5-yl)difluoromethyl)phosphonic acid]
2 | 0.3 to 3 µM | < 0.1 µM | O=C(N[C@H]1C[C@H]2C[C@H]2C[C@H]2CC[C@@H](C(=O)N3CC(c4ccccc4)C3)N2C1=O)c1cc2cc(C(F)(F)P(=O)(O)O)ccc2s1 [Compound 121]
3 | 3 to 30 µM | 0.1 to 1 µM | CC(C)(CNC(=O)[C@@H]1CC[C@@H]2C[C@@H]3C[C@@H]3C[C@H](NC(=O)c3cc4cc(C(F)(F)P(=O)(O)O)ccc4s3)C(=O)N21)c1cccnc1 [Compound 122, (difluoro(2-(((3S,6S,7aR,8aS,9aR)-3-((2-methyl-2-(pyridin-3-yl)propyl)carbamoyl)-5-oxodecahydro-1H-cyclopropa[d]pyrrolo[1,2-a]azocin-6-yl)carbamoyl)benzo[b]thiophen-5-yl)methyl)phosphonic acid]
4 | 3 to 30 µM | 0.1 to 1 µM | O=C(N[C@H]1C[C@H]2C[C@H]2C[C@H]2CC[C@@H](C(=O)NCC(CO)c3cccnc3)N2C1=O)c1cc2cc(C(F)(F)P(=O)(O)O)ccc2s1 (stereo partly drawn) [Compound 123, (difluoro(2-(((3S,6S,7aR,8aS,9aR)-3-((3-hydroxy-2-(pyridin-3-yl)propyl)carbamoyl)-5-oxodecahydro-1H-cyclopropa[d]pyrrolo[1,2-a]azocin-6-yl)carbamoyl)benzo[b]thiophen-5-yl)methyl)phosphonic acid]
5 | 0.3 to 3 µM | < 0.1 µM | O=C(N[C@H]1C[C@H]2C[C@H]2C[C@H]2CC[C@@H](C(=O)NCc3c[nH]c4ncccc34)N2C1=O)c1cc2cc(C(F)(F)P(=O)(O)O)ccc2s1 [Compound 124, ((2-(((3S,6S,7aR,8aS,9aR)-3-(((1H-pyrrolo[2,3-b]pyridin-3-yl)methyl)carbamoyl)-5-oxodecahydro-1H-cyclopropa[d]pyrrolo[1,2-a]azocin-6-yl)carbamoyl)benzo[b]thiophen-5-yl)difluoromethyl)phosphonic acid]
6 | 3 to 30 µM | 0.1 to 1 µM | O=C(N[C@H]1C[C@H]2C[C@H]2C[C@H]2CC[C@@H](C(=O)N3CCN(C4CCOCC4)CC3)N2C1=O)c1cc2cc(C(F)(F)P(=O)(O)O)ccc2s1 [Compound 125, (difluoro(2-(((3S,6S,7aR,8aS,9aR)-5-ox0-3-(4-(tetrahydro-2H-pyran-4-yl)piperazine-1-carbonyl)decahydro-1H-cyclopropa[d]pyrrolo[1,2-a]azocin-6-yl)carbamoyl)benzo[b]thiophen-5-yl)methyl)phosphonic acid]
7 | 0.3 to 3 µM | < 0.1 µM | CC(=O)N1C[C@H](NC(=O)[C@@H]2CC[C@@H]3C[C@@H]4C[C@@H]4C[C@H](NC(=O)c4cc5cc(C(F)(F)P(=O)(O)O)ccc5s4)C(=O)N32)[C@@H](F)C1 [Compound 126, ((2-(((3S,6S,7aR,8aS,9aR)-3-(((3S,4S)-1-acetyl-4-fluoropyrrolidin-3-yl)carbamoyl)-5-oxodecahydro-1H-cyclopropa[d]pyrrolo[1,2-a]azocin-6-yl)carbamoyl)benzo[b]thiophen-5-yl)difluoromethyl)phosphonic acid]
8 | 3 to 30 µM | < 0.1 µM | CC(=O)N1C[C@@H](F)[C@@H](NC(=O)[C@@H]2CC[C@@H]3C[C@@H]4C[C@@H]4C[C@H](NC(=O)c4cc5cc(C(F)(F)P(=O)(O)O)ccc5s4)C(=O)N32)C1 [Compound 127, ((2-(((3S,6S,7aR,8aS,9aR)-3-(((3S,4R)-1-acetyl-4-fluoropyrrolidin-3-yl)carbamoyl)-5-oxodecahydro-1H-cyclopropa[d]pyrrolo[1,2-a]azocin-6-yl)carbamoyl)benzo[b]thiophen-5-yl)difluoromethyl)phosphonic acid]
9 | 0.3 to 3 µM | < 0.1 µM | O=C(N[C@H]1C[C@H]2C[C@H]2C[C@H]2CC[C@@H](C(=O)N[C@H]3CN(c4cccnc4)C[C@@H]3F)N2C1=O)c1cc2cc(C(F)(F)P(=O)(O)O)ccc2s1 [Compound 128, (difluoro(2-(((3S,6S,7aR,8aS,9aR)-3-(((3S,4S)-4-fluoro-1-(pyridin-3-yl)pyrrolidin-3-yl)carbamoyl)-5-oxodecahydro-1H-cyclopropa[d]pyrrolo[1,2-a]azocin-6-yl)carbamoyl)benzo[b]thiophen-5-yl)methyl)phosphonic acid]
10 | 3 to 30 µM | < 0.1 µM | O=C(N[C@H]1C[C@H]2C[C@H]2C[C@H]2CC[C@@H](C(=O)N[C@H]3CN(c4cccnc4)C[C@H]3F)N2C1=O)c1cc2cc(C(F)(F)P(=O)(O)O)ccc2s1 [Compound 129, (difluoro(2-(((3S,6S,7aR,8aS,9aR)-3-(((3S,4R)-4-fluoro-1-(pyridin-3-yl)pyrrolidin-3-yl)carbamoyl)-5-oxodecahydro-1H-cyclopropa[d]pyrrolo[1,2-a]azocin-6-yl)carbamoyl)benzo[b]thiophen-5-yl)methyl)phosphonic acid]
11 | 3 to 30 µM | < 0.1 µM | C[C@@H]1CN(C(=O)C2CN(C(=O)[C@@H]3CC[C@@H]4C[C@H]5C[C@H]5C[C@H](NC(=O)c5cc6cc(C(F)(F)P(=O)(O)O)ccc6s5)C(=O)N43)C2)CCO1 [Example 1, (difluoro(2-(((3S,6S,7aS,8aR,9aR)-3-(3-((R)-2-methylmorpholine-4-carbonyl)azetidine-1-carbonyl)-5-oxodecahydro-1H-cyclopropa[d]pyrrolo[1,2-a]azocin-6-yl)carbamoyl)benzo[b]thiophen-5-yl)methyl)phosphonic acid]
12 | 0.3 to 3 µM | 0.1 to 1 µM | O=C(N[C@H]1C[C@@H]2C[C@@H]2C[C@H]2CC[C@@H](C(=O)Nc3ccc(-c4ccccc4)cc3)N2C1=O)c1cc2cc(C(F)(F)P(=O)(O)O)ccc2s1 [Example 3, ((2-(((3S,6S,7aS,8aR,9aR)-3-([1,1′-biphenyl]-4-ylcarbamoyl)-5-oxodecahydro-1H-cyclopropa[d]pyrrolo[1,2-a]azocin-6-yl)carbamoyl)benzo[b]thiophen-5-yl)difluoromethyl)phosphonic acid]
13 | 0.3 to 3 µM | 0.1 to 1 µM | O=C(N[C@H]1C[C@@H]2C[C@@H]2C[C@H]2CC[C@@H](C(=O)N3CCN(C(=O)[C@@H]4CCOC4)CC3)N2C1=O)c1cc2cc(C(F)(F)P(=O)(O)O)ccc2s1 [Example 7, (difluoro(2-(((3S,6S,7aS,8aR,9aR)-5-oxo-3-(4-((R)-tetrahydrofuran-3-carbonyl)piperazine-1-carbonyl)decahydro-1H-cyclopropa[d]pyrrolo[1,2-a]azocin-6-yl)carbamoyl)benzo[b]thiophen-5-yl)methyl)phosphonic acid]
14 | 3 to 30 µM | 0.1 to 1 µM | O=C(N[C@H]1C[C@@H]2C[C@@H]2C[C@H]2CC[C@@H](C(=O)N3CCN(C(=O)[C@H]4CCOC4)CC3)N2C1=O)c1cc2cc(C(F)(F)P(=O)(O)O)ccc2s1 [Example 8, (Difluoro(2-(((3S,6S,7aS,8aR,9aR)-5-oxo-3-(4-((S)-tetrahydrofuran-3-carbonyl)piperazine-1-carbonyl)decahydro-1H-cyclopropa[d]pyrrolo[1,2-a]azocin-6-yl)carbamoyl)benzo[b]thiophen-5-yl)methyl)phosphonic acid]
15 | 0.3 to 3 µM | 0.1 to 1 µM | CC(=O)N1C[C@H](NC(=O)[C@@H]2CC[C@@H]3C[C@H]4C[C@H]4C[C@H](NC(=O)c4cc5cc(C(F)(F)P(=O)(O)O)ccc5s4)C(=O)N32)[C@@H](O)C1 [Example 9, ((2-(((3S,6S,7aS,8aR,9aR)-3-(((3S,4S)-1-acetyl-4-hydroxypyrrolidin-3-yl)carbamoyl)-5-oxodecahydro-1H-cyclopropa[d]pyrrolo[1,2-a]azocin-6-yl)carbamoyl)benzo[b]thiophen-5-yl)difluoromethyl)phosphonic acid]
16 | 0.3 to 3 µM | < 0.1 µM | C[C@@]12C[C@H]3CC[C@@H](C(=O)N4CC(c5cccnc5)C4)N3C(=O)[C@@H](NC(=O)c3cc4cc(C(F)(F)P(=O)(O)O)ccc4s3)C[C@@H]1C2 [Example 230, (difluoro(2-(((3S,6S,7aS,8aR,9aR)-8a-methyl-5-oxo-3-(3-(pyridin-3-yl)azetidine-1-carbonyl)decahydro-1H-cyclopropa[d]pyrrolo[1,2-a]azocin-6-yl)carbamoyl)benzo[b]thiophen-5-yl)methyl)phosphonic acid]
